Laboratory results from the supplement of paper PMC11061612.

How the values were obtained:
[1] = system: HPAF-II (Pancreatic Carcinoma); test: Bliss excess, mean over the matrix (fraction); higher = more synergy
Outline: (§1)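 Bliss excess equals the observed combination effect minus the expected value EA + EB − EA·EB, where EA and EB are the effects of each agent alone. Combination Emax is the second-highest inhibition within the matrix. Inhibition was scaled from CellTiter-Glo 2.0 luminescence, with 0 set by vehicle wells and 1 by blank wells, after 72 hours of two-drug dosing of cells plated in 1536-well plates.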

[2] = system: CL-11 (Colorectal Carcinoma); test: combination Emax (second highest fraction inhibited in the dose matrix, 72 h); higher = more inhibition; extreme values may be limits of the assay
Outline: as §1

[3] = system: CPC-N (Small Cell Lung Carcinoma); test: as above
Outline: as §1

ES6 (Ewing's Sarcoma) = test: as above
Outline: as §1

GAK (Melanoma) = test: as above
Outline: as §1

[4] = system: HPAF-II (Pancreatic Carcinoma); test: as above
Outline: as §1

[5] = system: MOLT-13 (T-Lymphoblastic Leukemia); test: as above
Outline: as §1

[6] = system: NAMALWA (Burkitt's Lymphoma); test: as above
Outline: as §1

[7] = system: NCI-H1963 (Small Cell Lung Carcinoma); test: as above
Outline: as §1

NCI-H226 (Mesothelioma) = test: as above
Outline: as §1

[8] = system: SAT (Head and Neck Carcinoma); test: as above
Outline: as §1

[9] = system: SK-CO-1 (Colorectal Carcinoma); test: as above
Outline: as §1

SK-N-SH (Neuroblastoma) = test: as above
Outline: as §1

[10] = system: SNU-423 (Hepatocellular Carcinoma); test: as above
Outline: as §1

[11] = system: TUR (Acute Myeloid Leukemia); test: as above
Outline: as §1

[12] = system: ZR-75-30 (Breast Carcinoma); test: as above
Outline: as §1

In the case of `NC1(C(=O)N[C@@H](CCO)c2ccc(Cl)cc2)CCN(c2ncnc3[nH]ccc23)CC1` [Capivasertib] + C[C@@H]1COCCN1C2=NC(=NC(=C2)C3(CC3)[S@](=N)(=O)C)C4=C5C=CNC5=NC=C4 [AZD6738] (first compound max 10 µM, 7x7, partner max 10 µM), the Bliss excess [1] was -0.0105, the “combination Emax” value [2] was 0.718 and the “combination Emax” value [3] was 0.894. For the same compound, the “combination Emax” value (ES6 (Ewing's Sarcoma)) was 0.667, the “combination Emax” value (GAK (Melanoma)) was 0.509 and the “combination Emax” value [4] was 0.5. The “combination Emax” value [5] was 0.957, the “combination Emax” value [6] was 0.937 and the “combination Emax” value [7] was 0.885. For the same compound, the “combination Emax” value (NCI-H226 (Mesothelioma)) was 0.358, the “combination Emax” value [8] was 0.579 and the “combination Emax” value [9] was 0.668. For the same compound, the “combination Emax” value (SK-N-SH (Neuroblastoma)) was 0.872, the “combination Emax” value [10] was 0.586 and the “combination Emax” value [11] was 0.962. For the same compound, the “combination Emax” value [12] was 0.469.
